Results published in patent US9364494B2, “Somatostatin 2 receptor (sst2), deoxycytidine kinase (dck) and uridine monophosphate kinase (umk) pancreatic gene therapy” (Institut National de la Sante et de la Recherche Medicale …, priority 2007, dated 2016).

Tests used:
PC1.0 cells [1] = tested on: PC1.0 cells; design: species or system Syrian golden hamsters; conditions: hamster, in vivo, ip, 120 mg/kg/day
PC1.0 cells [2] = format: in vivo; conditions: day 15 post-cell implantation; 25 to 50 μg expression vector intra-tumoral; gemcitabine i.p. 80 to 120 mg/kg/day every three days

Cl.Nc1ccn([C@@H]2O[C@H](CO)[C@@H](O)C2(F)F)c(=O)n1 [Gemcitabine, No DNA, 2′-deoxy-2′,2′-difluorocytidine monohydrochloride]
tumor evolution on day 15 (PC1.0 cells [1]): only slow down the tumor progression | Tumor progression (percentage) (PC1.0 cells [2]): +150 to 378 percentage
